# Experiments:
# Type in all cases: functional, cell-based
# A549 = experiment: Antiproliferative activity against human A549 cells incubated for 48 hrs by MTT assay; conditions: A549, 48 h
# NCI-H1650 = experiment: Antiproliferative activity against human NCI-H1650 cells incubated for 48 hrs by MTT assay; conditions: NCI-H1650, 48 h
# BGC-823 = experiment: Antiproliferative activity against human BGC823 cells incubated for 48 hrs by MTT assay; conditions: BGC-823, 48 h
# RKO = experiment: Antiproliferative activity against human RKO cells incubated for 48 hrs by MTT assay
# HeLa = experiment: Antiproliferative activity against human HeLa cells incubated for 48 hrs by MTT assay
# A2780 = experiment: Antiproliferative activity against human A2780 cells incubated for 48 hrs by MTT assay; conditions: A2780, 48 h
# HCT-116 = experiment: Antiproliferative activity against human HCT116 cells incubated for 48 hrs by MTT assay; conditions: HCT-116, 48 h
SMILES,IC50 (A549) [µM],IC50 (NCI-H1650) [µM],IC50 (BGC-823) [µM],IC50 (RKO) [µM],IC50 (HeLa) [µM],IC50 (A2780) [µM],IC50 (HCT-116) [µM]
Fc1ccc(COc2ccc3c(Nc4cccc(F)c4)ccnc3c2)cc1,> 10,> 10,> 10,> 10,> 10,> 10,> 10
O=[N+]([O-])c1cccc(Nc2ccnc3cc(OCCCc4ccccc4)ccc23)c1,5.09,6.01,8.32,8.29,4.13,4.46,7.46
Fc1ccc2c(Nc3cccc(Br)c3)ccnc2c1,> 10,> 10,> 10,> 10,> 10,> 10,> 10
CCOc1ccc2c(Nc3cccc([N+](=O)[O-])c3)ccnc2c1,> 10,> 10,> 10,> 10,3.42,> 10,> 10
CCCCCCCCOc1ccc2c(Nc3cccc(F)c3)ccnc2c1,9.52,9.45,5.96,9.54,4.3,9.75,9.3
COc1ccc2c(Nc3cccc([N+](=O)[O-])c3)ccnc2c1,> 10,> 10,7.45,> 10,> 10,> 10,> 10
CCOc1ccc2c(Nc3cccc(F)c3)ccnc2c1,> 10,> 10,9.85,> 10,0.68,> 10,> 10
Fc1cccc(Nc2ccnc3cc(OCCCc4ccccc4)ccc23)c1,> 10,> 10,> 10,> 10,0.25,4.62,> 10
O=[N+]([O-])c1cccc(Nc2ccnc3cc(Br)ccc23)c1,> 10,> 10,> 10,> 10,> 10,> 10,> 10
O=[N+]([O-])c1cccc(Nc2ccnc3cc(OCc4ccccc4)ccc23)c1,9.49,9.54,8.13,9.68,5.39,9.19,8.76
CCCCOc1ccc2c(Nc3cccc(OC)c3)ccnc2c1,> 10,8.69,7.26,8.1,6.56,8.87,7.68
Fc1cccc(Nc2ccnc3cc(OCc4ccccc4)ccc23)c1,> 10,> 10,> 10,> 10,> 10,> 10,> 10
C=CCOc1ccc2c(Nc3cccc([N+](=O)[O-])c3)ccnc2c1,> 10,> 10,3.83,> 10,0.22,6.77,> 10
C=CCOc1ccc2c(Nc3cccc(OC)c3)ccnc2c1,> 10,> 10,6.65,> 10,2.2,8.06,> 10
Fc1cccc(Nc2ccnc3cc(Cl)ccc23)c1,> 10,> 10,> 10,> 10,> 10,> 10,> 10
O=[N+]([O-])c1cccc(Nc2ccnc3cc(OCc4ccc(F)cc4)ccc23)c1,7.3,9.35,9.45,8.7,5.79,6.51,8.17
CC(C)Oc1ccc2c(Nc3cccc([N+](=O)[O-])c3)ccnc2c1,> 10,> 10,8.39,> 10,0.52,1.47,> 10
Fc1ccc2c(Nc3cccc(Cl)c3)ccnc2c1,> 10,> 10,> 10,> 10,> 10,> 10,> 10
CCCCOc1ccc2c(Nc3cccc(Br)c3)ccnc2c1,> 10,> 10,> 10,> 10,0.84,> 10,> 10
O=[N+]([O-])c1cccc(Nc2ccnc3cc(F)ccc23)c1,> 10,> 10,> 10,> 10,> 10,> 10,> 10
COc1ccc2c(Nc3cccc(F)c3)ccnc2c1,> 10,> 10,> 10,> 10,> 10,> 10,> 10

# — ChEMBL document CHEMBL4364251, “Design, synthesis and biological evaluation of new quinoline derivatives as potential antitumor agents” (Eur J Med Chem, 2019)
